# Reference: the supplement of paper PMC11061612
# Assays:
# [1] = compound: C1CN(CCC1(C(=O)N[C@@H](CCO)C2=CC=C(C=C2)Cl)N)C3=NC=NC4=C3C=CN4 [Capivasertib]; settings: max 10 µM
# Method in brief: (§1)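 Plates with 1536 wells received cancer cell lines in 7.5 μl of DMEM/F12 or RPMI containing 10% FBS. After 24 hours at 37°C and 5% CO2, cells were dosed for 72 hours with final DMSO typically 0.2%, and viability was read by CellTiter-Glo 2.0 luminescence scaled between blank-well and DMSO-well means. The single-agent IC50 was taken from a logistic fit of the dose responses made with a non-linear mixed effects model, that logistic curve having two parameters.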
# [2] = compound: C=CCn1c(=O)c2cnc(Nc3ccc(N4CCN(C)CC4)cc3)nc2n1-c1cccc(C(C)(C)O)n1 [AZD1775]; settings: max 3 µM
# Method in brief: as §1
# [3] = compound: CC(=O)Nc1cccc(-n2c(=O)n(C3CC3)c(=O)c3c(Nc4ccc(I)cc4F)n(C)c(=O)c(C)c32)c1 [Trametinib]; settings: max 1 µM
# Method in brief: as §1
# [4] = compound: CC(=O)c1c(C)c2cnc(Nc3ccc(N4CCNCC4)cn3)nc2n(C2CCCC2)c1=O [Palbociclib]; settings: max 10 µM
# Method in brief: as §1
# [5] = compound: CC(C)n1c(=O)n(C)c2cnc3cc(F)c(-c4ccc(OCCCN5CCCCC5)nc4)cc3c21 [AZD1390]; settings: max 0.3 µM
# Method in brief: as §1
# [6] = compound: CC1(C)CCC(CN2CCN(c3ccc(C(=O)NS(=O)(=O)c4ccc(NCC5CCOCC5)c([N+](=O)[O-])c4)c(Oc4cnc5[nH]ccc5c4)c3)CC2)=C(c2ccc(Cl)cc2)C1 [Venetoclax]; settings: max 1 µM
# Method in brief: as §1
# [7] = compound: CC1=C(C(=CC=C1)Cl)NC(=O)C2=CN=C(S2)NC3=CC(=NC(=N3)C)N4CCN(CC4)CCO [Dasatinib]; settings: max 2 µM
# Method in brief: as §1
# [8] = compound: CC1=CN2[C@@H](C1)C=NC3=CC(=C(C=C3C2=O)OC)OCCCCCOC4=C(C=C5C(=C4)N=C[C@@H]6CC(=CN6C5=O)C)OC [SG3199]; settings: max 0.001 µM
# Method in brief: as §1
# [9] = compound: CCN(CCO)CCCOc1ccc2c(Nc3cc(CC(=O)Nc4cccc(F)c4)[nH]n3)ncnc2c1 [AZD2811]; settings: max 1 µM
# Method in brief: as §1
# [10] = compound: CCc1c2c(nc3ccc(O)cc13)-c1cc3c(c(=O)n1C2)COC(=O)[C@]3(O)CC [SN-38]; settings: max 0.3 µM
# Method in brief: as §1
# [11] = compound: CN(C)CCCOc1ccc(-c2ccc3ncc4c(c3c2)n(C2CCOCC2)c(=O)n4C)cn1 [AZD0156]; settings: max 3 µM
# Method in brief: as §1
# [12] = compound: CN(CC[C@H](CSC1=CC=CC=C1)NC2=C(C=C(C=C2)S(=O)(=O)NC(=O)C3=CC=C(C=C3)N4CCC(CC4)[C@H](C5=CC=CC=C5C6=CC=C(C=C6)Cl)O)S(=O)(=O)C(F)(F)F)CCO [AZD4320]; settings: max 1 µM
# Method in brief: as §1
# [13] = compound: COc1cc(Nc2ncc3c(n2)-c2ccc(Cl)cc2C(c2c(F)cccc2OC)=NC3)ccc1C(=O)O [Alisertib]; settings: max 10 µM
# Method in brief: as §1
# [14] = compound: COc1cc2ncnc(Nc3ccc(F)c(Cl)c3)c2cc1OCCCN1CCOCC1 [Gefitinib]; settings: max 10 µM
# Method in brief: as §1
# [15] = compound: COc1cccc(OCCCN)c1-c1cc(Nc2cnc(C#N)cn2)n[nH]1 [Prexasertib]; settings: max 1 µM
# Method in brief: as §1
# [16] = compound: COc1cccc2c1C(=O)c1c(O)c3c(c(O)c1C2=O)C[C@@](O)(C(=O)CO)C[C@@H]3O[C@H]1C[C@H](N)[C@H](O)[C@H](C)O1 [Doxorubicin]; settings: max 1 µM
# Method in brief: as §1
# [17] = compound: COc1nnc2ccc(N3CCC(c4ccc(OCCN5CCN(C)C(=O)[C@H]5C)cc4)CC3)nn12 [AZD5153]; settings: max 1 µM
# Method in brief: as §1
# [18] = compound: CS(=O)(=O)CCNCc1ccc(-c2ccc3ncnc(Nc4ccc(OCc5cccc(F)c5)c(Cl)c4)c3c2)o1 [Lapatinib]; settings: max 10 µM
# Method in brief: as §1
# [19] = compound: C[C@@H](Nc1cc(F)cc(F)c1)c1cc(C(=O)N(C)C)cc2c(=O)cc(N3CCOCC3)oc12 [AZD8186]; settings: max 3 µM
# Method in brief: as §1
# [20] = compound: C[C@@H](Oc1cc(-c2cnn(C3CCNCC3)c2)cnc1N)c1c(Cl)ccc(F)c1Cl [Crizotinib]; settings: max 10 µM
# Method in brief: as §1
# [21] = compound: C[C@@H](c1ccc2nccn2c1)n1nnc2ncc(-c3cnn(C)c3)nc21 [Savolitinib]; settings: max 1 µM
# Method in brief: as §1
# [22] = compound: C[C@@H]1COCCN1C2=NC(=NC(=C2)C3(CC3)[S@](=N)(=O)C)C4=C5C=CNC5=NC=C4 [AZD6738]; settings: max 10 µM
# Method in brief: as §1
# [23] = compound: Cc1c2c(nn1C)CSCc1cc(n(C)n1)CSc1cc(c3ccccc3c1)OCCCc1c(C(=O)O)n(C)c3c-2c(Cl)ccc13 [AZD5991]; settings: max 1 µM
# Method in brief: as §1
# [24] = compound: Cc1cc2ncnn2cc1Nc1ncc2c(n1)n(C1CCOCC1)c(=O)n2C [AZD7648]; settings: max 10 µM
# Method in brief: as §1
# [25] = compound: Cc1nc(-c2cn3c(n2)-c2ccc(-c4cnn(C(C)(C)C(N)=O)c4)cc2OCC3)n(C(C)C)n1 [Taselisib]; settings: max 10 µM
# Method in brief: as §1
# [26] = compound: Cn1cnc2c(F)c(Nc3ccc(Br)cc3Cl)c(C(=O)NOCCO)cc21 [Selumetinib]; settings: max 10 µM
# Method in brief: as §1
# [27] = compound: NC1(c2ccc(-c3nc4ccn5c(=O)[nH]nc5c4cc3-c3ccccc3)cc2)CCC1 [MK-2206]; settings: max 10 µM
# Method in brief: as §1
# [28] = compound: O=C(c1cc(Cc2n[nH]c(=O)c3ccccc23)ccc1F)N1CCN(C(=O)C2CC2)CC1 [Olaparib]; settings: max 10 µM
# Method in brief: as §1
Cell Line,"IC50, cell viability 72 h [1] [µM]","IC50, cell viability 72 h [2] [µM]","IC50, cell viability 72 h [3] [µM]","IC50, cell viability 72 h [4] [µM]","IC50, cell viability 72 h [5] [µM]","IC50, cell viability 72 h [6] [µM]","IC50, cell viability 72 h [7] [µM]","IC50, cell viability 72 h [8] [µM]","IC50, cell viability 72 h [9] [µM]","IC50, cell viability 72 h [10] [µM]","IC50, cell viability 72 h [11] [µM]","IC50, cell viability 72 h [12] [µM]","IC50, cell viability 72 h [13] [µM]","IC50, cell viability 72 h [14] [µM]","IC50, cell viability 72 h [15] [µM]","IC50, cell viability 72 h [16] [µM]","IC50, cell viability 72 h [17] [µM]","IC50, cell viability 72 h [18] [µM]","IC50, cell viability 72 h [19] [µM]","IC50, cell viability 72 h [20] [µM]","IC50, cell viability 72 h [21] [µM]","IC50, cell viability 72 h [22] [µM]","IC50, cell viability 72 h [23] [µM]","IC50, cell viability 72 h [24] [µM]","IC50, cell viability 72 h [25] [µM]","IC50, cell viability 72 h [26] [µM]","IC50, cell viability 72 h [27] [µM]","IC50, cell viability 72 h [28] [µM]"
NCI-H1944 (Lung Adenocarcinoma),7.93,0.839,0.733,> 10,> 0.3,> 1,> 2,> 0.001,> 1,0.134,> 3,> 1,4.87,> 10,0.134,> 1,0.491,> 10,> 3,> 10,> 1,3.98,> 1,> 10,1.6,> 10,> 10,> 10
OCI-M1 (Acute Myeloid Leukemia),> 10,0.426,0.0354,9.53,> 0.3,> 1,> 2,> 0.001,> 1,0.0134,> 3,0.131,0.516,> 10,0.0186,0.443,0.0162,> 10,> 3,1.4,> 1,0.657,> 1,> 10,> 10,1.81,> 10,> 10
RS4-11 (B-Lymphoblastic Leukemia),9.4,0.268,> 1,4.98,> 0.3,0.00579,> 2,> 0.001,0.00884,0.00479,> 3,0.00382,0.0322,> 10,0.0167,0.46,0.191,> 10,> 3,1.52,> 1,1.39,0.723,> 10,7.52,> 10,,> 10
